In publication PMC12491518, “Fabrication of cytotoxic mirror image nanopores” (Nature Communications, 2025):
Where a SMILES comes first, the peptide text is derived from it. [ ]: non-standard residue; d: D form.

Tests used:
[1] = system: MDA-MB-231 cells; assay: Cell membrane integrity by CellMask Deep Red staining; assay type: cell-based, human; details: 25 µM, 24 h
Procedure: MDA-MB-231 cells were seeded in a 24-well plate (Thermo Fisher Scientific, 142475) containing sterilized coverslips (Blue star, Microscopic cover glass circular 12 mm 10 gm) at a cell density of 3 × 10^4 cells per well. 24 h post-seeding, cells were treated with DpPorA DE peptide, 5-FAM-DpPorA DE peptide, or a corresponding concentration of DDM. After 24 h of treatment, cells were stained with CellMask Deep Red (Thermo Fisher Scientific, C10046; 1:4000 dilution in PBS) for 5 min at 37 °C. After membrane staining, the cells were washed with PBS and fixed in 2% PFA (Himedia, TCL119) for 5 min. After PBS wash, the coverslips were carefully removed from the wells and mounted with ProLong™ Gold Antifade Mountant (Invitrogen, P10144). The cells were immediately visualized within 60 min using the Carl Zeiss Axio Observer fluorescence microscope. Fluorescence was quantified by drawing the ROI around individual cells to measure the green channel intensity (5-FAM-DpPorA DE). Integrated Density was measured using ImageJ software for 50 cells per group. […]
g) Preparation of DDM and peptides for testing on cancer cells
Lyophilized DpPorA, LpPorA, DpPorA DE, LpPorA DE and 5-FAM-DpPorA DE were reconstituted in 0.1% DDM [1 µL of 100 µg mL-1 DDM (Sigma-Aldrich Merck, D5172) in PBS (Gibco - 14040)], resulting in a peptide concentration of 1.7 mM. Subsequent concentrations were diluted with DMEM, 10% FBS, and 1% Penicillin /Streptomycin-containing media. (Supplementary Table 2) h) Cell membrane integrity analysis and statistics
Immunofluorescence (IF) images were analyzed to assess the impact of different treatments on cell membrane integrity. Cells were categorized into Intact and Disrupted groups based on membrane integrity observed by CellMask cell membrane staining. We evaluated a t least 100 cells for each group - Control, DDM-treated cells and peptide-treated cells- with independent analysis done by a student blinded to the groups' identity . […]
indicating a loss of cell membrane integrity. This categorization provided a clear and systematic approach to quantify the effects of various treatments on cell membrane integrity.
For three independent experiments, data in bar graphs represent mean (± standard deviation) fold change relative to Control groups. Differences between the two datasets were assessed using Welch’s test. Statistical significance is indicated as: *p<0.05, **p<0.01, ***p<0.001,

[2] = Ion selectivity measurement under asymmetric KCl (reverse potential, Goldman-Hodgkin-Katz); assay type: biochemical; details: 0.15 M KCl cis / 1 M KCl trans
Procedure: High-resolution electrical recordings for the single-channel characterization were conducted in planar lipid bilayers made up of 1,2-diphytanoyl-sn-glycero-3-phosphocholine (DPhPC, Avanti Polar Lipids)[23],[27],[51]. The lipid bilayer is formed across a polytetrafluoroethylene (Teflon) aperture of ~100 µm in diameter. Teflon is placed between the two sides of the Delrin bilayer chamber, partitioning it into cis and trans compartments (600 µL each). For constructing a solvent-free lipid bilayer, the aperture is made lipophilic by pre-painting both sides with hexadecane in n-pentane (1 μL, 5 mg mL^−1)[51]. After ~10 min, the chambers were filled with buffered electrolytes (1 M KCl, 10 mM HEPES, pH 7.4), and DPhPC in n-pentane (1 μL, 5 mg mL^−1) was added. After ~15 min incubation, the lipid bilayer is formed by raising and lowering the electrolyte solution, bringing the two lipid monolayers together at the aperture. […] Ion selectivity was assessed under asymmetric salt conditions with a KCl concentration gradient across the planar lipid bilayer (0.15 M cis/1 M trans) (SI text)[27]. The ion current was acquired and amplified using an Axopatch 200B amplifier, digitized with Digidata 1550B digitizer, and recorded using the pClamp 11 acquisition software (Molecular Devices, CA). […]

| Structure (SMILES) | Cell number, Disrupted phenotype [1] | Cell number, Intact phenotype [1] | cells with Disrupted membrane phenotype ([1]; at least 100 cells) [%] | cells with Intact membrane phenotype ([1]; at least 100 cells) [%] | reverse potential (Vm) [2] |
| --- | --- | --- | --- | --- | --- |
| CC[C@@H](C)[C@@H](NC(=O)[C@H](N)CCSC)C(=O)N[C@H](CC(=O)O)C(=O)N[C@H](CCC(N)=O)C(=O)N[C@@H](C(=O)N[C@@H](C(=O)N[C@H](CCC(=O)O)C(=O)N[C@@H](C(=O)N[C@H](Cc1ccccc1)C(=O)NCC(=O)N[C@H](CCC(N)=O)C(=O)N[C@H](CC(C)C)C(=O)NCC(=O)N[C@@H](C(=O)N[C@H](Cc1ccccc1)C(=O)N[C@H](CC(C)C)C(=O)NCC(=O)NCC(=O)N[C@H](Cc1ccccc1)C(=O)NCC(=O)N[C@H](CC(N)=O)C(=O)N[C@@H](C(=O)N[C@H](Cc1ccccc1)C(=O)N[C@H](CCCCN)C(=O)NCC(=O)N[C@H](CC(C)C)C(=O)N[C@H](CCCCN)C(=O)N[C@H](C)C(=O)N[C@@H](C(=O)N[C@@H](C(=O)N[C@H](C)C(=O)N[C@@H](C(=O)N[C@@H](C(=O)N[C@@H](C(=O)N[C@H](CCCCN)C(=O)N[C@H](Cc1c[nH]c2ccccc12)C(=O)N[C@@H](C(=O)N[C@H](C)C(=O)N[C@H](C)C(=O)N[C@H](CCCCN)C(=O)O)[C@H](C)O)C(C)C)[C@H](C)CC)[C@H](C)O)[C@H](C)CC)C(C)C)[C@H](C)CC)[C@H](C)O)[C@H](C)CC)[C@H](C)O)[C@H](C)CC [DpPorA DE] (H-[dM][dI][dD][dQ][dI][dT][dE][dI][dF]G[dQ][dL]G[dT][dF][dL]GG[dF]G[dN][dI][dF][dK]G[dL][dK][dA][dV][dI][dA][dT][dI][dV][dK][dW][dT][dA][dA][dK]-OH; N-terminus and C-terminus assumed) | 158 | 1 | 99.37 | 0.63 | +40 mV |
| CC[C@@H](C)[C@@H](NC(=O)[C@H](N)CCSC)C(=O)N[C@H](CC(=O)O)C(=O)N[C@H](CCC(N)=O)C(=O)N[C@@H](C(=O)N[C@@H](C(=O)N[C@H](CCC(=O)O)C(=O)N[C@@H](C(=O)N[C@H](Cc1ccccc1)C(=O)NCC(=O)N[C@H](CCC(N)=O)C(=O)N[C@H](CC(C)C)C(=O)NCC(=O)N[C@@H](C(=O)N[C@H](Cc1ccccc1)C(=O)N[C@H](CC(C)C)C(=O)NCC(=O)NCC(=O)N[C@H](Cc1ccccc1)C(=O)NCC(=O)N[C@H](CC(N)=O)C(=O)N[C@@H](C(=O)N[C@H](Cc1ccccc1)C(=O)N[C@H](CCCCN)C(=O)NCC(=O)N[C@H](CC(C)C)C(=O)N[C@H](CCCCN)C(=O)N[C@H](CC(=O)O)C(=O)N[C@@H](C(=O)N[C@@H](C(=O)N[C@H](CCC(=O)O)C(=O)N[C@@H](C(=O)N[C@@H](C(=O)N[C@@H](C(=O)N[C@H](CCCCN)C(=O)N[C@H](Cc1c[nH]c2ccccc12)C(=O)N[C@@H](C(=O)N[C@H](C)C(=O)N[C@H](C)C(=O)N[C@H](CCCCN)C(=O)O)[C@H](C)O)C(C)C)[C@H](C)CC)[C@H](C)O)[C@H](C)CC)C(C)C)[C@H](C)CC)[C@H](C)O)[C@H](C)CC)[C@H](C)O)[C@H](C)CC [DpPorA] (H-[dM][dI][dD][dQ][dI][dT][dE][dI][dF]G[dQ][dL]G[dT][dF][dL]GG[dF]G[dN][dI][dF][dK]G[dL][dK][dD][dV][dI][dE][dT][dI][dV][dK][dW][dT][dA][dA][dK]-OH; N-terminus and C-terminus assumed) | – | – | – | – | +21 mV |
